# From US20260207522A1, “YEAST CELL WALL PARTICLE ENCAPSULATION OF BIODEGRADABLE PRO-PAYLOADS” (UNIVERSITY OF MASSACHUSETTS, priority 2018, published 2026)
# Legend:
# [1] = loading into yeast cell wall particles; assay type: physicochemical
# Method: To create encapsulated pro-payloads, water-insoluble pro-payloads are dissolved in a suitable solvent compatible with the glucan particles (e.g., dimethylsulfoxide, methanol, etc.). After loading the pro-payloads into glucan shells, the glucan particle pro-payload is processed to remove the solvent.
# The pro-payload CS-AcA was dissolved in a suitable solvent and combined with extracted yeast cell wall particles to create encapsulated CS-AcA.
# The pro-payload INH-LA was dissolved in a suitable solvent and combined with extracted yeast cell wall particles to create encapsulated INH-LA.
# [2] = in vitro release assay of naproxen from YCWPs; assay type: physicochemical; conditions: pH 7
# Method: The pro-payload Nap-An was dissolved in a suitable solvent and combined with extracted yeast cell wall particles to create encapsulated Nap-An.
# [3] = tested on: H. pylori; conditions: concentration of 2 mg/L; cited from earlier work
# [4] = tested on: C. albicans; conditions: Bard et al.; cited from earlier work
# [5] = tested on: S. cerevisiae; conditions: Bard et al.; cited from earlier work
Compound,amount loaded into yeast cell wall particles [1],also measured
"N[C@@H]1CON=C1O [CS, cycloserine]",≤ 14%,
"NNC(=O)c1ccncc1 [INH, isoniazid]",0%,
"CCCCCCCCCCCC(=O)NNC(=O)c1ccncc1 [INH-LA, isoniazid lauric acid]",up to 89%,
"COc1ccc2cc(C(C)C(=O)OC(=O)C(C)c3ccc4cc(OC)ccc4c3)ccc2c1 (stereo not shown) [Nap-An, naproxen anhydride]",,50% release time (RT50) [2]: greater than 13.5 hours
CC(C)=CCC/C(C)=C/CO [geraniol],,in vitro growth of H. pylori [3]: inhibited; growth of C. albicans strains [4]: inhibit the growth; growth of S. cerevisiae strains [5]: inhibit the growth
cycloserine acetylacetone [CS-AcA],≤ 70%,
doxorubicin-isoniazid [Dox-INH],up to 61%,
doxorubicin-isophorone diisocyanate [Dox-IPDI],up to 92%,
